From ChEMBL document CHEMBL1811831, “Minutissamides A-D, antiproliferative cyclic decapeptides from the cultured cyanobacterium Anabaena minutissima” (J Nat Prod, 2011) come the findings set out here.

In this assay the test system is HT-29. Briefly: Antiproliferative activity against human HT-29 cells. The format is functional, cell-based.

The IC50 is the concentration that inhibits the measured activity by half. High values mean lower potency, low ones higher potency.

Regarding `C/C=C1/NC(=O)[C@H](CC(N)=O)NC(=O)/C(=C\C)NC(=O)[C@H](C(C)C)NC(=O)[C@H](O)[C@@H]([C@@H](C)CCCCCCCC)NC(=O)[C@@H]2CCCN2C(=O)[C@H](CC(N)=O)N(C)C(=O)[C@H]([C@@H](C)O)NC(=O)[C@@H](C)NC(=O)[C@H](CC(N)=O)NC1=O` [MINUTISSAMIDE A], it took 2 µM to reach half-maximal inhibition (IC50).

Consider `C/C=C1/NC(=O)[C@H](CC(N)=O)NC(=O)/C(=C\C)NC(=O)[C@H](C(C)C)NC(=O)[C@H](O)[C@@H]([C@@H](C)CCCCCCCCCl)NC(=O)[C@@H]2CCCN2C(=O)[C@H](CC(N)=O)N(C)C(=O)[C@H]([C@@H](C)O)NC(=O)[C@@H](C)NC(=O)[C@H](CC(N)=O)NC1=O` [MINUTISSAMIDE B], for which the IC50 came out at 20 µM.
